Assay results published in ChEMBL document CHEMBL5055630, “Design, synthesis and biological evaluation of indole-based [1,2,4]triazolo[4,3-a] pyridine derivatives as novel microtubule polymerization inhibitors” (Eur J Med Chem, 2021).
The source made the active and inactive calls. The rule behind the calls is not given here.

Assays:
[1] = Metabolic stability in human liver microsomes assessed as parent compound remaining after 60 mins; type: ADME, Microsome; conditions: read-out: Stability
[2] = system: HeLa; assay: Induction of apoptosis in human HeLa cells assessed as viable cells at 5 nM incubated for 48 hrs by Annexin V and propidium iodide Staining based assay (reference value: 98.5 %); type: functional; conditions: read-out: Activity
[3] = Metabolic stability in human liver microsomes assessed as half life; type: ADME, Microsome
[4] = system: A549; assay: Antiproliferative activity against human A549 assessed as reduction in cell viability measured after 48 hrs by MTT assay; type: functional, cell-based; conditions: A549, 48 h
[5] = Metabolic stability in human liver microsomes assessed as parent compound remaining measured immediately after compound addition; type: ADME, Microsome; conditions: read-out: Stability
[6] = system: MCF7; assay: Antiproliferative activity against human MCF7 assessed as reduction in cell viability measured after 48 hrs by MTT assay; type: functional, cell-based; conditions: MCF7, 48 h
[7] = system: HeLa; assay: Induction of apoptosis in human HeLa cells assessed as early apoptotic cells at 5 nM incubated for 48 hrs by Annexin V and propidium iodide Staining based assay (reference value: 0.2%); type: functional
[8] = Metabolic stability in human liver microsomes assessed as parent compound remaining after 15 mins; type: ADME, Microsome; conditions: read-out: Stability
[9] = system: HeLa; assay: Induction of apoptosis in human HeLa cells assessed as necrotic cells at 5 nM incubated for 48 hrs by Annexin V and propidium iodide Staining based assay (reference value: 0.4%); type: functional
[10] = Metabolic stability in human liver microsomes assessed as parent compound remaining after 90 mins; type: ADME, Microsome; conditions: read-out: Stability
[11] = system: HeLa; assay: Induction of apoptosis in human HeLa cells assessed as late apoptotic cells at 5 nM incubated for 48 hrs by Annexin V and propidium iodide Staining based assay (reference value: 1 %); type: functional
[12] = Metabolic stability in human liver microsomes assessed as parent compound remaining after 30 mins; type: ADME, Microsome; conditions: read-out: Stability
[13] = system: HeLa; assay: Induction of cell cycle arrest in human HeLa cells assessed as accumulation of cells at G2/M phase at 5 nM incubated for 24 hrs by propidium iodide staining based flow cytometry analysis; type: functional
[14] = system: HeLa; assay: Induction of apoptosis in human HeLa cells assessed as increase in bax protein expression after 24 hrs by Western blot analysis; type: functional, cell-based; conditions: dose 10-1000 nM
[15] = target: Tubulin (Homo sapiens) (UniProt P68371+Q9H4B7+P0DPH7+P68366+Q13509+Q71U36+P04350+Q3ZCM7+P07437+P68363+Q9BQE3+Q6PEY2+Q13885+Q9BVA1+Q9BUF5); assay: Induction of microtubule disruption in human Hela cells assessed as fragmented and disassembled microtubule network in cytosol at 10 to 50 nM incubated for 24 hrs by AlexaFluor 488 dye/DAPI staining based immunofluorescence assay; type: cell-based; conditions: dose 10-50 nM
[16] = system: HeLa; assay: Induction of apoptosis in human HeLa cells assessed as early apoptotic cells at 50 nM incubated for 48 hrs by Annexin V and propidium iodide Staining based assay (reference value: 0.2%); type: functional
[17] = system: HeLa; assay: Induction of apoptosis in human HeLa cells assessed as necrotic cells at 25 nM incubated for 48 hrs by Annexin V and propidium iodide Staining based assay (reference value: 0.4%); type: functional
[18] = system: HeLa; assay: Induction of apoptosis in human HeLa cells assessed as necrotic cells at 50 nM incubated for 48 hrs by Annexin V and propidium iodide Staining based assay (reference value: 0.4%); type: functional
[19] = target: Tubulin; assay: Inhibition of tubulin polymerization (unknown origin) assessed as fluorescence intensity measured for 90 mins by DAPI based microplate reader; type: functional, Homo sapiens
[20] = system: HeLa; assay: Induction of apoptosis in human HeLa cells assessed as reduction in Bcl-xl protein expression after 24 hrs by Western blot analysis; type: functional, cell-based; conditions: dose 10-1000 nM
[21] = system: HeLa; assay: Induction of apoptosis in human HeLa cells assessed as late apoptotic cells at 25 nM incubated for 48 hrs by Annexin V and propidium iodide Staining based assay (reference value: 1 %); type: functional
[22] = system: HeLa; assay: Induction of apoptosis in human HeLa cells assessed as increase in cleaved-PARP 1 protein expression after 24 hrs by Western blot analysis; type: functional, cell-based; conditions: dose 10-1000 nM
[23] = system: HeLa; assay: Induction of apoptosis in human HeLa cells assessed as increase in bad protein expression after 24 hrs by Western blot analysis; type: functional, cell-based; conditions: dose 10-1000 nM
[24] = system: HeLa; assay: Induction of apoptosis in human HeLa cells assessed as viable cells at 10 nM incubated for 48 hrs by Annexin V and propidium iodide Staining based assay (reference value: 98.5 %); type: functional; conditions: read-out: Activity
[25] = system: HeLa; assay: Induction of cell cycle arrest in human HeLa cells assessed as accumulation of cells at G2/M phase at 50 nM incubated for 24 hrs by propidium iodide staining based flow cytometry analysis; type: functional
[26] = system: HeLa; assay: Induction of apoptosis in human HeLa cells assessed as increase in cleaved caspase 3 protein expression after 24 hrs by Western blot analysis; type: functional, cell-based; conditions: dose 10-1000 nM
[27] = system: HeLa; assay: Induction of apoptosis in human HeLa cells assessed as late apoptotic cells at 50 nM incubated for 48 hrs by Annexin V and propidium iodide Staining based assay (reference value: 1 %); type: functional
[28] = system: HeLa; assay: Induction of apoptosis in human HeLa cells assessed as early apoptotic cells at 25 nM incubated for 48 hrs by Annexin V and propidium iodide Staining based assay (reference value: 0.2%); type: functional
[29] = system: HeLa; assay: Induction of cell cycle arrest in human HeLa cells assessed as accumulation of cells at G2/M phase at 10 nM incubated for 24 hrs by propidium iodide staining based flow cytometry analysis; type: functional
[30] = system: HeLa; assay: Induction of cell cycle arrest in human HeLa cells assessed as reduction in Cdc2 expression at 10 to 1000 nM measured after 24 hrs by immunoblotting assay; type: functional, cell-based; conditions: dose 10-1000 nM
[31] = system: HCT-116; assay: Antiproliferative activity against human HCT-116 assessed as reduction in cell viability measured after 48 hrs by MTT assay; type: functional, cell-based; conditions: HCT-116, 48 h
[32] = system: HeLa; assay: Inhibition of cell migration in human HeLa cells at 10 nM incubated for 24 hrs by microscopy method relative to control; type: functional
[33] = system: HeLa; assay: Induction of apoptosis in human HeLa cells assessed as reduction in Bcl-2 protein expression after 24 hrs by Western blot analysis; type: functional, cell-based; conditions: dose 10-1000 nM
[34] = system: HeLa; assay: Antiproliferative activity against human HeLa assessed as reduction in cell viability measured after 48 hrs by MTT assay; type: functional, cell-based
[35] = system: HeLa; assay: Induction of apoptosis in human HeLa cells assessed as early apoptotic cells at 10 nM incubated for 48 hrs by Annexin V and propidium iodide Staining based assay (reference value: 0.2%); type: functional
[36] = system: HeLa; assay: Induction of cell cycle arrest in human HeLa cells assessed as reduction in Cdc25c expression at 10 to 1000 nM measured after 24 hrs by immunoblotting assay; type: functional, cell-based; conditions: dose 10-1000 nM
[37] = system: HeLa; assay: Inhibition of cell migration in human HeLa cells at 5 nM incubated for 24 hrs by microscopy method relative to control; type: functional
[38] = system: HeLa; assay: Induction of apoptosis in human HeLa cells assessed as late apoptotic cells at 10 nM incubated for 48 hrs by Annexin V and propidium iodide Staining based assay (reference value: 1 %); type: functional
[39] = system: Tubulin beta; assay: Inhibition of beta-tubulin polymerization in human HeLa cells assessed as inhibition of EBI-beta-tubulin adduct formation measured by Western blot-based EBI competition assay; type: cell-based
[40] = system: HeLa; assay: Induction of apoptosis in human HeLa cells assessed as viable cells at 50 nM incubated for 48 hrs by Annexin V and propidium iodide Staining based assay (reference value: 98.5 %); type: functional; conditions: read-out: Activity
[41] = system: HeLa; assay: Induction of apoptosis in human HeLa cells assessed as viable cells at 25 nM incubated for 48 hrs by Annexin V and propidium iodide Staining based assay (reference value: 98.5 %); type: functional; conditions: read-out: Activity
[42] = system: HeLa; assay: Inhibition of cell migration in human HeLa cells at 25 nM incubated for 24 hrs by microscopy method relative to control; type: functional
[43] = system: HeLa; assay: Induction of cell cycle arrest in human HeLa cells assessed as increase in cyclin B1 level at 10 to 1000 nM measured after 24 hrs by immunoblotting assay; type: functional, cell-based; conditions: dose 10-1000 nM
[44] = system: HeLa; assay: Induction of apoptosis in human HeLa cells assessed as necrotic cells at 10 nM incubated for 48 hrs by Annexin V and propidium iodide Staining based assay (reference value: 0.4%); type: functional

For `COc1ccc(/C=C\c2cc(OC)c(OC)c(OC)c2)cc1O` [COMBRETASTATIN A4], the remaining at 1 h [1] was 26.1%, the viability at 0.005 µM [2] was 6.7% and the half-life [3] was 32.5 min. It also gave an IC50 [4] of 15 nM, a remaining at 0 min [5] of 100% and an IC50 [6] of 10 nM. The Activity [7] was 38.6%, the remaining at 0.25 h [8] was 75.6% and the Activity [9] was 2.6%. It also gave a remaining at 1.5 h [10] of 15.4%, an Activity [11] of 52.2% and a remaining at 0.5 h [12] of 54.1%.
For `COc1cc(-c2nnc3c(OC)cc(-c4ccc5c(ccn5C)c4)cn23)cc(OC)c1OC`, the remaining at 1 h [1] was 37.5%, the Activity [13] was 17.4% and the half-life [3] was 51.7 min. The Activity [14] was “Dose-dependent effect”, the Activity [15] was “Active” and the Activity [16] was 27.6%. For the same compound, the Activity [17] was 3.6%, the Activity [18] was 2.6% and the IC50 [4] was 69 nM. For the same compound, the remaining at 0 min [5] was 100%, the IC50 [19] was 1640 nM and the IC50 [6] was 49 nM. The Activity [20] was “Dose-dependent effect”, the Activity [21] was 54% and the Activity [22] was “Dose-dependent effect”. The Activity [23] was “Dose-dependent effect”, the viability at 0.01 µM [24] was 41.8% and the Activity [25] was 77%. For the same compound, the Activity [26] was “Dose-dependent effect”, the remaining at 0.25 h [8] was 75.9% and the Activity [27] was 65.7%. The Activity [28] was 11.1%, the Activity [29] was 37.7% and the Activity [30] was “Active”. For the same compound, the IC50 [31] was 33 nM, the inhibition at 0.01 µM [32] was 32.2% and the Activity [33] was “Dose-dependent effect”. The IC50 [34] was 15 nM, the Activity [35] was 7.1% and the Activity [36] was “Active”. For the same compound, the inhibition at 0.005 µM [37] was 22.1%, the remaining at 1.5 h [10] was 30.1% and the Activity [38] was 48.8%. For the same compound, the IC50 [39] was “Dose-dependent effect”, the viability at 0.05 µM [40] was 4.2% and the viability at 0.025 µM [41] was 31.2%. The inhibition at 0.025 µM [42] was 44.3%, the remaining at 0.5 h [12] was 55.5% and the Activity [43] was “Active”. It also gave an Activity [44] of 2.4%.
In the case of `COc1cc(-c2nnc3c(OC4CC4)cc(-c4ccc5c(ccn5C)c4)cn23)cc(OC)c1OC`, the IC50 [4] is reported as 168 nM, the IC50 [6] is reported as 118 nM and the IC50 [31] is reported as 135 nM. It also gave an IC50 [34] of 97 nM.
In the case of `COc1cc(-c2nnc3c(OC4COC4)cc(-c4ccc5c(ccn5C)c4)cn23)cc(OC)c1OC`, the IC50 [4] is reported as 516 nM, the IC50 [6] is reported as 1900 nM and the IC50 [31] is reported as 1290 nM. For the same compound, the IC50 [34] was 214 nM.
With `COc1cc(-c2nnc3c(OC)cc(-c4ccc5c(c4)c(C=O)cn5C)cn23)cc(OC)c1OC` the IC50 [4] was 3080 nM, the IC50 [6] was 1120 nM and the IC50 [31] was 1800 nM. For the same compound, the IC50 [34] was 820 nM.
With `COc1cc(-c2nnc3c(OC4CC4)cc(-c4ccc5[nH]ccc5c4)cn23)cc(OC)c1OC` the IC50 [4] was 198 nM, the IC50 [6] was 259 nM and the IC50 [31] was 275 nM. For the same compound, the IC50 [34] was 119 nM.
`CCCN1CC(Oc2cc(-c3ccc4c(ccn4C)c3)cn3c(-c4cc(OC)c(OC)c(OC)c4)nnc23)C1` showed an IC50 [4] of 234 nM, an IC50 [6] of 378 nM and an IC50 [31] of 675 nM. It also gave an IC50 [34] of 211 nM.
Compound `COc1ccc(/C=C/C=C\c2cc(OC)c(OC)c(OC)c2)cc1O` has a remaining at 1 h [1] of 12.5%, a half-life [3] of 26.7 min and an IC50 [4] of 118 nM. The remaining at 0 min [5] was 100%, the IC50 [6] was 75 nM and the remaining at 0.25 h [8] was 47.7%. For the same compound, the IC50 [31] was 42.3 nM, the IC50 [34] was 62 nM and the remaining at 1.5 h [10] was 9.2%. It also gave a remaining at 0.5 h [12] of 26.3%.
